Columns and labels:
Gal4-RORγ-LBD = target: T1, Gal4-RORγ-LBD (Homo sapiens, UniProt P51449); experiment: Gal4-RORγ Luciferase Reporter Assay in HEK-293T Cells; format: cell-based; conditions: HEK-293 cells, luciferase reporter, with 2 μM ursolic acid
T1 construct: expressed in transfected cells; host or cells: HEK-293 cells (pcDNA3.1neo plasmid)
T1 sequence (P51449 269-508 limits assumed): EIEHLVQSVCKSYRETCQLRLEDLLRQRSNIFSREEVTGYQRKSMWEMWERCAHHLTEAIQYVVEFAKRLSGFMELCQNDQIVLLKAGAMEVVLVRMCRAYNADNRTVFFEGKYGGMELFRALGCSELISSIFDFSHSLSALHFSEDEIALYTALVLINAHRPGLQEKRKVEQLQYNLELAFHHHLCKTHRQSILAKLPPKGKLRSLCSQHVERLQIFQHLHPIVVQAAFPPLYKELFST
Outline: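 In transfected HEK-293 cells (Gal4-RORγ-LBD, Gal4-luciferase), test agents with 2 μM ursolic acid were incubated overnight at 37 °C before luminescent detection. Values are relative to the ursolic-acid-free, compound-free signal (100).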

RORγ-LBD = target: T2, RORγ-LBD (Homo sapiens, UniProt P51449); experiment: RORγ-Ligand Binding Domain (LBD) TR-FRET Assay; format: biochemical;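 for TR-FRET Assay Max Response: 665/615 nm ratio relative to signal without ursolic acid or compound set at 100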
T2 construct: made in house; host or cells: SF9 cells (baculovirus)
T2 sequence (P51449 269-508 limits assumed): T1 sequence (P51449 269-508 limits assumed)
Outline: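 SF9 lysate containing His-RORγ-LBD, ~3 nM final; coactivator peptide biotin-SRC1 LXXLL, 200 nM final; ursolic acid 2 μM final; DMSO 1% final; Tris pH 7.0 buffer with KCl, EDTA, DTT, BSA. TR-FRET format.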

| SMILES | EC50 (Gal4-RORγ-LBD) | Gal4-RORγ Assay Max Response (Gal4-RORγ-LBD) | EC50 (RORγ-LBD) | TR-FRET Assay Max Response (RORγ-LBD) |
| --- | --- | --- | --- | --- |
| O=C(O)C1CCN(C(=O)CC[C@H]2CN(S(=O)(=O)c3cccc(C(F)(F)F)c3)c3cc(-c4cccc(F)c4F)ccc3O2)CC1 [Compound 23P, (S)-1-(3-(6-(2,3-difluorophenyl)-4-((3-(trifluoromethyl)-phenyl)sulfonyl)-3,4-dihydro-2H-benzo[b][1,4]oxazin-2-yl)propanoyl)piperidine-4-carboxylic acid] | < 500 nM | *** (The symbol “***” indicates a value in the range of greater than 150 to 200) | < 500 nM | **** (The symbol “****” indicates a value greater than 200) |
| O=C(O)C1CCN(C(=O)NC[C@H]2CN(S(=O)(=O)c3cccc(C(F)(F)F)c3)c3cc(-c4cc(F)ccc4F)ccc3O2)CC1 [Compound 23Q, (S)-1-(((6-(2,5-difluorophenyl)-4-((3-(trifluoromethyl)-phenyl)sulfonyl)-3,4-dihydro-2H-benzo[b][1,4]oxazin-2-yl)methyl)carbamoyl)piperidine-4-carboxylic acid] | 500 to 5000 nM | *** (The symbol “***” indicates a value in the range of greater than 150 to 200) | < 500 nM | **** (The symbol “****” indicates a value greater than 200) |
| CN(CCC(=O)O)C(=O)NC[C@H]1CN(S(=O)(=O)c2cccc(C(F)(F)F)c2)c2cc(-c3cc(F)ccc3F)ccc2O1 [Compound 23R, (S)-3-(3-((6-(2,5-difluorophenyl)-4-((3-(trifluoromethyl)phenyl)-sulfonyl)-3,4-dihydro-2H-benzo[b][1,4]oxazin-2-yl)methyl)-1-methylureido)propanoic acid] | 500 to 5000 nM | ** (The symbol “**” indicates a value in the range of greater than 90 to 150) | < 500 nM | **** (The symbol “****” indicates a value greater than 200) |
| O=C(CC[C@H]1CN(S(=O)(=O)c2cccc(C(F)(F)F)c2)c2cc(-c3cc(F)ccc3F)ccc2O1)NC[C@H](O)C(=O)O [Compound 23S, (S)-3-(3-((S)-6-(2,5-difluoro-phenyl)-4-((3-(trifluoromethyl)-phenyl)sulfonyl)-3,4-dihydro-2H-benzo[b][1,4]oxazin-2-yl)propanamido)-2-hydroxypropanoic acid] | 500 to 5000 nM | ** (The symbol “**” indicates a value in the range of greater than 90 to 150) | < 500 nM | **** (The symbol “****” indicates a value greater than 200) |
| O=C(O)C1CCN(C(=O)NCC[C@H]2CN(S(=O)(=O)c3cccc(C(F)(F)F)c3)c3cc(-c4cc(F)ccc4F)ccc3O2)CC1 [Compound 23T, (S)-1-((2-(6-(2,5-difluorophenyl)-4-((3-(trifluoromethyl)phenyl)-sulfonyl)-3,4-dihydro-2H-benzo[b][1,4]oxazin-2-yl)ethyl)carbamoyl)piperidine-4-carboxylic acid] | < 500 nM | ** (The symbol “**” indicates a value in the range of greater than 90 to 150) | < 500 nM | **** (The symbol “****” indicates a value greater than 200) |
| O=C(O)[C@H]1CCCN1C(=O)NCC[C@H]1CN(S(=O)(=O)c2cccc(C(F)(F)F)c2)c2cc(-c3cc(F)ccc3F)ccc2O1 [Compound 23U, ((2-((S)-6-(2,5-difluorophenyl)-4-((3-(trifluoromethyl)phenyl)-sulfonyl)-3,4-dihydro-2H-benzo[b][1,4]oxazin-2-yl)ethyl)carbamoyl)-D-proline] | < 500 nM | ** (The symbol “**” indicates a value in the range of greater than 90 to 150) | < 500 nM | **** (The symbol “****” indicates a value greater than 200) |
| O=C(O)[C@@H]1CCCN1C(=O)NCC[C@H]1CN(S(=O)(=O)c2cccc(C(F)(F)F)c2)c2cc(-c3cc(F)ccc3F)ccc2O1 [Compound 23V, ((2-((S)-6-(2,5-difluorophenyl)-4-((3-(trifluoromethyl)phenyl)-sulfonyl)-3,4-dihydro-2H-benzo[b][1,4]oxazin-2-yl)ethyl)carbamoyl)-L-proline] | 500 to 5000 nM | ** (The symbol “**” indicates a value in the range of greater than 90 to 150) | < 500 nM | **** (The symbol “****” indicates a value greater than 200) |
| CN(CC(=O)O)C(=O)NCC[C@H]1CN(S(=O)(=O)c2cccc(C(F)(F)F)c2)c2cc(-c3cc(F)ccc3F)ccc2O1 [Compound 23W, (S)-N-((2-(6-(2,5-difluorophenyl)-4-((3-(trifluoromethyl)phenyl)-sulfonyl)-3,4-dihydro-2H-benzo[b][1,4]oxazin-2-yl)ethyl)carbamoyl)-N-methylglycine] | < 500 nM | ** (The symbol “**” indicates a value in the range of greater than 90 to 150) | < 500 nM | **** (The symbol “****” indicates a value greater than 200) |
| O=C(O)CNC(=O)NCC[C@H]1CN(S(=O)(=O)c2cccc(C(F)(F)F)c2)c2cc(-c3cc(F)ccc3F)ccc2O1 [Compound 23X, (S)-((2-(6-(2,5-difluorophenyl)-4-((3-(trifluoromethyl)phenyl)-sulfonyl)-3,4-dihydro-2H-benzo[b][1,4]oxazin-2-yl)ethyl)carbamoyl)glycine] | 500 to 5000 nM | ** (The symbol “**” indicates a value in the range of greater than 90 to 150) | < 500 nM | **** (The symbol “****” indicates a value greater than 200) |
| CN(CCC(=O)O)C(=O)NCC[C@H]1CN(S(=O)(=O)c2cccc(C(F)(F)F)c2)c2cc(-c3cc(F)ccc3F)ccc2O1 [Compound 23Y, (S)-3-(3-(2-(6-(2,5-difluoro-phenyl)-4-((3-(trifluoromethyl)-phenyl)sulfonyl)-3,4-dihydro-2H-benzo[b][1,4]oxazin-2-yl)ethyl)-1-methylureido)propanoic acid] | < 500 nM | ** (The symbol “**” indicates a value in the range of greater than 90 to 150) | < 500 nM | *** (The symbol “***” indicates a value in the range of greater than 150 to 200) |
| Cc1cnc(-c2ccc3c(c2)N(S(=O)(=O)c2cccc(C(F)(F)F)c2)C[C@H](CCC(=O)O)O3)o1 [Compound 26, (S)-3-(6-(5-methyloxazol-2-yl)-4-((3-(trifluoromethyl)phenyl)sulfonyl)-3,4-dihydro-2H-benzo[b][1,4]oxazin-2-yl)propanoic acid] | 500 to 5000 nM | * (The symbol “*” indicates a value in the range of 25 to 90) | 500 to 5000 nM | *** (The symbol “***” indicates a value in the range of greater than 150 to 200) |
| NCC[C@H]1CN(S(=O)(=O)c2cccc(C(F)(F)F)c2)c2cc(-c3cc(F)ccc3F)ccc2O1 [Compound 27, (S)-2-(6-(2,5-difluorophenyl)-4-((3-(trifluoromethyl)phenyl)sulfonyl)-3,4-dihydro-2H-benzo[b][1,4]oxazin-2-yl)ethan-1-amine] | 500 to 5000 nM | * (The symbol “*” indicates a value in the range of 25 to 90) | < 500 nM | **** (The symbol “****” indicates a value greater than 200) |
| O=c1[nH]nc(CC[C@H]2CN(S(=O)(=O)c3cccc(C(F)(F)F)c3)c3cc(-c4cccc(C(F)(F)F)n4)ccc3O2)o1 [Compound 28A, (S)-5-(2-(4-((3-(trifluoromethyl)-phenyl)sulfonyl)-6-(6-(trifluoromethyl)pyridin-2-yl)-3,4-dihydro-2H-benzo[b][1,4]oxazin-2-yl)ethyl)-1,3,4-oxadiazol-2(3H)-one] | < 500 nM | ** (The symbol “**” indicates a value in the range of greater than 90 to 150) | < 500 nM | **** (The symbol “****” indicates a value greater than 200) |
| CN(C)c1cccc(-c2ccc3c(c2)N(S(=O)(=O)c2cccc(C(F)(F)F)c2)C[C@H](CCc2n[nH]c(=O)o2)O3)n1 [Compound 28B, (S)-5-(2-(6-(6-(dimethylamino)-pyridin-2-yl)-4-((3-(trifluoro-methyl)phenyl)sulfonyl)-3,4-dihydro-2H-benzo[b][1,4]oxazin-2-yl)ethyl)-1,3,4-oxadiazol-2(3H)-one] | < 500 nM | ** (The symbol “**” indicates a value in the range of greater than 90 to 150) | < 500 nM | **** (The symbol “****” indicates a value greater than 200) |
| O=c1[nH]nc(CC[C@H]2CN(S(=O)(=O)c3cccc(C(F)(F)F)c3)c3cc(-c4cncc(C(F)(F)F)c4)ccc3O2)o1 [Compound 28C, (S)-5-(2-(4-((3-(trifluoromethyl)-phenyl)sulfonyl)-6-(5-(trifluoromethyl)pyridin-3-yl)-3,4-dihydro-2H-benzo[b][1,4]oxazin-2-yl)ethyl)-1,3,4-oxadiazol-2(3H)-one] | < 500 nM | * (The symbol “*” indicates a value in the range of 25 to 90) | < 500 nM | **** (The symbol “****” indicates a value greater than 200) |
